The values that follow come from ChEMBL document CHEMBL1150158, “Lyngbyastatin 1 and Ibu-epilyngbyastatin 1: synthesis, stereochemistry, and NMR line broadening” (J Nat Prod, 2002).

Experiment [1] relates to NCI-H460. Nature of the experiment: Growth inhibition of human NCI-H460 cells. It is filed as functional.
Experiment [2] relates to DU-145. Nature of the experiment: Growth inhibition of human DU145 cells. It is filed as functional.
Experiment [3] in a line: Induction of rabbit muscle actin polymerization after 1 hr. Details: species or system Oryctolagus cuniculus, Muscle tissue.

By GI50 is commonly meant the concentration that inhibits growth by half. A high value points to lower sensitivity of the cells. As usually defined, the EC50 is the concentration giving half of the maximal effect. Read a high EC50 as weaker potency.

≈ marks a conversion by molar mass, not a printed value. Numbered stars: 1 amine (or outer) side, 2 acyl side, 3 side chain; on linkers, the order of the positions; unused ones are H or OH. Square brackets hold non-standard residues; d marks the D form. Peptide text beside a SMILES is read from it. X1 = CC[C@H](C)[C@H](OC(=O)[C@@H](C)[C@@H](CC)N[*:1])C(=O)[*:2]; X3 = C[C@@H](N[*:1])C(=O)C(C)(C)C(=O)[*:2]; X2 = C[C@H](N[*:1])C(=O)C(C)(C)C(=O)[*:2]; NMeY = CN[C@@H](Cc1ccc(O)cc1)C(=O)O; NMeL = CN[C@@H](CC(C)C)C(=O)O; NMeV = CN[C@H](C(=O)O)C(C)C

For the molecule `CC[C@H](C)[C@@H]1OC(=O)[C@@H](C)[C@@H](CC)NC(=O)[C@H](C)NC(=O)C(C)(C)C(=O)[C@@H](C)NC(=O)[C@H](Cc2ccc(OC)cc2)N(C)C(=O)[C@H](C(C)C)N(C)C(=O)CNC(=O)[C@H](CC(C)C)N(C)C(=O)CNC1=O` (cyclo(A[X1]G[NMeL]G[NMeV][NMeY](Me)[X3])), the GI50 in experiment [1] was 0.031 µg/mL (≈ 0.0315 µM); in experiment [2], 0.24 µg/mL (≈ 0.244 µM).

For `CC[C@H](C)[C@@H]1OC(=O)[C@@H](C)[C@@H](CC)NC(=O)[C@H](C)NC(=O)C(C)(C)C(=O)[C@H](C)NC(=O)[C@H](Cc2ccc(OC)cc2)N(C)C(=O)[C@H](C(C)C)N(C)C(=O)CNC(=O)[C@H](CC(C)C)N(C)C(=O)CNC1=O` [DOLASTATIN 11] (cyclo(A[X1]G[NMeL]G[NMeV][NMeY](Me)[X2])), the GI50 in experiment [1] was found to be 0.0013 µg/mL (≈ 0.00132 µM); in experiment [2], 0.22 µg/mL (≈ 0.223 µM). The same molecule gave an EC50 in experiment [3] of 9.5 µM.
